Molecules are shown by their SMILES. Where two headings read alike, the source gives them in different places. Some results are limits rather than exact numbers.

The values that follow come from patent US20030170299A1, “Therapeutic methods for acute myeloid leukemia” (priority 2002, published 2003).

In data set [1] the test system is KG-1 cells. As to the kind of experiment: Cellular uptake of calcein liposomes by flow cytometry, KG-1. Type of data set: cell-based, human. The note with it: 6S-5MeTHF at 10 μM. As for the experimental part: Folate-coated liposomes with the composition DSPC/Chol/folate-PEG-DSPE (60:40:0.1, m/m) and entrapping calcein, a membrane impermeable fluorescent dye, (f-L-calcein) were prepared, using a modification of the procedure described above. Non-targeted calcein-containing liposomes (L-calcein), with essentially the same composition, minus folate-PEG-DSPE, were used as a control. FR (+) cell lines, human KG-1, CHO-FR-β, and murine L1210JF, and the FR (−) cell lines KG-1a, CHO-K1 and L1210 were used. FR-β expression on the cells was determined by flow cytometry using a receptor-specific antibody. For liposome binding studies, the cells were treated in triplicate with f-L-calcein (folate-conjugated liposomes containing calcein) or free L-calcein at 20 μM in media. The cells were then washed 3× with cold PBS and examined by […] (FIG. 3).
Data on cellular uptake of calcein-containing liposomes in the FR (+) KG-1, L1210JF and CHO-FR-β cells, and FR (−) KG-1a, L1210 and CHO-K1 controls are summarized in Table 2 below.
In order to examine the potential effect of physiological folate on FR-mediated drug delivery in FR-β (+) cells, f-L-calcein uptake was measured in KG-1 cells in the presence of 0-10 μM 6S-5-methyltetrahydrofolate (6S-5MeTHF) using the same flow cytometry method as described above.

Data set [2] concerns FR-β. The note with it: cited from earlier work.
The test system of data set [3] is FR-β expression. Nature of the data set: ATRA induction of FR-β in AML blasts from patient marrow (Western blot). It counts as cell-based, human. The conditions noted are these: myeloid leukemia cells from patient bone marrow, in vitro, ATRA 1 μmol/L. The protocol: FIG. 5. ATRA induction of FR-β in AML blasts from patient marrow. Cells (1×10^6) were cultured and treated with or without ATRA (1 μmol/L) for 6 hours (A and B), 24 hours (C), or 5 days (D). The samples were obtained from separate patients with FAB-M2 (A and C) or FAB-M4 (B and D) type AML. Cell lysates were then examined by Western blot and the use of rabbit anti-FR-β- and AP conjugated antibodies.
In one study, FR-β expression was elevated up to 20-fold by ATRA in KG-1 myeloid leukemia cells in a dose-dependent and reversible manner in the absence of terminal differentiation or cell growth inhibition (FIG. 4). The retinoid-induced increase in FR-β expression occurred in these cells without causing terminal differentiation or growth inhibition of the cells. In addition, ATRA increased FR-β expression in vitro in myeloid leukemia cells from patient bone marrow (FIG. 5). ATRA-induction of FR-β occurred even though primary AML blast cells (M2 and M4 type AMLs) are known to be refractory to ATRA differentiation therapy. […] In addition, FR-β inducers can modulate FR-β expression in AML cells refractory to retinoid differentiation therapy.

The test system of data set [4] is FR-β expression.
For data set [5], the system named is acute promyelocytic leukemia (PML). The conditions noted are these: PML patients; cited from earlier work.
The subject of data set [6] is KG-1 ascites tumor.
Protocol: Effect of f-L-DOX treatment on the survival of SCID mice carrying KG-1 ascites tumor. SCID mice inoculated intraperitoneally with KG-1 cells that were treated with saline, free DOX, L-DOX or f-L-DOX, with or without co-injection of ATRA. Animal survival was recorded starting from the day of tumor cell inoculation.
The therapeutic efficacy of f-L-DOX in a human leukemia murine ascites xenograft model was further tested. Female CB.17 SCID (scid/scid, 18-22 g) mice were inoculated intraperitoneally with human AML KG-1 cells, which express FR-β, to generate ascites tumors. KG-1 cells (1×10^6) grown in folate-deficient RPMI1640 media supplemented with 20% FBS were injected into the mice intraperitoneally on day 0. […] Peritoneal exudate cells were collected by peritoneal lavage with 5 mL Hanks' balanced salt solution (HBSS), pelleted and resuspended in RPMI1640 media. […] The tumor cells were inoculated into 8 groups of 8 mice. Four of the groups received daily intraperitoneal injections of 10 mg/kg of ATRA on days 1 through 5. The following formulations were administered as intraperitoneal injections on days 1, 5, and 9 (in 50 μL): 1) saline, 2) free DOX (3 mg/kg), 3) L-DOX (5 mg/kg), 4) f-L-DOX (5 mg/kg), 5) saline+ATRA, 6) free DOX+ATRA, 7) L-DOX+ATRA, and 8) f-L-DOX+ATRA. The body weight and survival of the animals were monitored daily during the course of the study.
The test system of data set [7] is L1210JF cells. Nature of the data set: MTT cytotoxicity, L1210JF. Type of data set: cell-based, murine. The note with it: no ATRA. As for the experimental part:
(§1) FR-targeted liposomal doxorubicin (f-L-DOX) was evaluated for in vitro cytotoxicity in both FR (+) and FR (−) leukemia cells using a standard cell survival assay (MTT assay). FR-targeted liposomal-doxorubicin (f-L-DOX) was prepared as described above. F-L-DOX in vitro cytotoxicity was evaluated in two FR (+) cell lines [KG-1, an FR-β (+) human AML cell line, and L1210JF, an FR (+) subline of L1210 murine acute lymphocytic leukemia cell line] and two FR (−) cell lines [KG-1a, an FR-β (−) subline of KG-1, and FR (−) L1210 cells] using the survival assay. The cells were treated in quadruplicate with serial dilutions of f-L-DOX, non-targeted control L-DOX, or free DOX. Cell viability was determined and IC50 values were calculated. For KG-1 and KG-1a cells, the MTT assay was repeated with cells cultured in media containing 1 μM ATRA for 5-days.

Data set [8] concerns L1210JF ascites tumor. Nature of the data set: Survival of DBA/2 mice carrying L1210JF ascites tumor. Type of data set: in vivo, DBA/2J mice. The note with it: i.p. on days 1, 5, 9; free DOX 3 mg/kg, L-DOX and f-L-DOX 5 mg/kg DOX. As for the experimental part:
The antileukemic therapeutic efficacy of f-L-DOX was evaluated in two FR (+) murine leukemia ascites tumor models. The first model consisted of DBA/2J mice with ascites tumors derived from intraperitoneally engrafted FR (+) murine lymphocytic leukemia L1210JF cells. Male mice (18-22 g, from Charles River, Wilmington, Mass.) were placed on a folate-deficient diet (AIN-93G from Dyets, Inc., PA) and for at least one week prior to leukemia cell inoculation. The mice, in groups of 8 animals, were injected intraperitoneally with 1×10^6 L1210JF cells on day 0. The animals then received three intraperitoneal injections (in 50 μL) of various drug formulations on days 1, 5, and 9. […] In the saline-treated group, no visible ascitic fluid began to develop until after one week.

Data set [9] concerns KG-1 cells. Nature of the data set: MTT cytotoxicity, KG-1. It counts as cell-based, human. As for the experimental part:
as §1

In data set [10] the test system is L1210 cells. Nature of the data set: MTT cytotoxicity, L1210. Type of data set: cell-based, murine. As for the experimental part: as §1
Data set [11] deals with KG-1a cells. Nature of the data set: MTT cytotoxicity, KG-1a. It counts as cell-based, human. As for the experimental part:
as §1

Data set [12] relates to CMLs. The note with it: in vivo; cited from earlier work.
The test system of data set [13] is FR-β (+) AML cells. As to the kind of experiment: [3H] folic acid binding to FR-β (+) AML cells. On the set-up: species or system human.

Turning to `CN1c2c(nc(N)[nH]c2=O)NC[C@@H]1CNc1ccc(C(=O)N[C@@H](CCC(=O)O)C(=O)O)cc1` [6S-5MeTHF, 6S-5-methyltetrahydrofolate], the “inhibition of f-L-calcein uptake” value in data set [1] was “did not significantly inhibit”. In addition, in data set [2], the “affinity of FR-β lower than for folic acid” value was about 35 ×.

`CC1=C(/C=C/C(C)=C/C=C/C(C)=C/C(=O)O)C(C)(C)CCC1` [ATRA, all-trans retinoic acid]: the FR-β expression entry in data set [3] is “increased”; in [4] (KG-1 cells, flow cytometry, 5-day exposure to ATRA (1 μM)) it was “significant increase”. The FR-β expression elevated entry in data set [4] (KG-1 myeloid leukemia cells, dose-dependent, reversible) was “up to 20 fold”. Further, in [5], the Complete remission is listed as 72-95%. The survival entry in data set [6] (ATRA treatment in the absence of f-L-DOX or L-DOX) is on record as “did not enhance survival”.

Take `COc1cccc2c1C(=O)c1c(O)c3c(c(O)c1C2=O)C[C@@](O)(C(=O)CO)C[C@@H]3O[C@H]1C[C@H](N)[C@H](O)[C@H](C)O1` [Free DOX, doxorubicin]: the IC50 (in general, the point on the concentration scale where inhibition reaches its midpoint) was 860 nM in [7] (FR-α (+), folate-free media); 870 nM in data set [7] (media containing 1 mM folic acid); 650 nM in [9] (KG-1, FR-β (+), no ATRA, folate-free media); 630 nM in data set [9] (KG-1, FR-β (+), pre-exposure to ATRA, folate-free media); 670 nM in data set [9] (KG-1, no ATRA, media containing 1 mM folic acid); 680 nM in data set [9] (KG-1, pre-exposure to ATRA, media containing 1 mM folic acid). Moreover, the IC50 in data set [10] (L1210, FR (−), no ATRA, folate-free media) came out at 910 nM; in [10] (L1210, no ATRA, media containing 1 mM folic acid) it was 930 nM; in [11] (FR (−), no ATRA, folate-free media) it was 610 nM; in [11] (FR (−), pre-exposure to ATRA, folate-free media) it was 590 nM; in data set [11] (no ATRA, media containing 1 mM folic acid), 630 nM; in [11] (pre-exposure to ATRA, media containing 1 mM folic acid) it was 620 nM. This compound came in with a median survival time in data set [8] of 28.5 days. In addition, the dose-limiting toxicity in [6] (mice, results not shown) is on record as over 3 mg/kg.

Turning to `CS(=O)(=O)O.Cc1ccc(NC(=O)c2ccc(CN3CCN(C)CC3)cc2)cc1Nc1nccc(-c2cccnc2)n1` [Gleevec™], in data set [12], the “effective against CMLs” value was 90%.

`Nc1nc2ncc(CNc3ccc(C(=O)N[C@@H](CCC(=O)O)C(=O)O)cc3)nc2c(=O)[nH]1` [folic acid]: the “[3H] folic acid bound” value in [13] is given as 0.72±0.13 pmoles per 10^6 cells.
